Data from US20020111274A1, “1-alkyl-3-[1-(substituted phenyl) benzotriazol-6-yl] uracils” (BASF Aktiengesellschaft, priority 2000, published 2002).

Assays:
Design in all cases: scale not given here
GALAP Galium = experiment: Postemergence herbicidal evaluation, GALAP; format: in vivo, Galium aparine; conditions: postemergence spray, rated about two-three weeks after treatment
Procedure, shortened: (§1)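 Postemergence spray, 40 psi nozzle, on ~2-week seedlings. Carrier: acetone/water 80/20, 1.0% methylated seed oil; dose ~0.006–0.400 kg/ha. Scored visually at 2–3 weeks.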

SETVI Foxtail, Green [1] = experiment: Preemergence herbicidal evaluation, SETVI; format: in vivo, Setaria viridis, (L.) Beau; conditions: preemergence
Procedure, shortened: (§2)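 Visual ratings were taken four to five weeks after application. Before that, cups sown with seed in potting soil received a spray of compound dissolved in aqueous acetone, equivalent to about 0.013 to 0.800 kg/ha, and stood on greenhouse benches under conventional care.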

SETVI Foxtail, Green [2] = experiment: Postemergence herbicidal evaluation, SETVI; format: in vivo, Setaria viridis, (L.) Beau; conditions: postemergence spray, rated about two-three weeks after treatment
Procedure, shortened: as §1

ZEAMX Corn, Field = experiment: Preemergence herbicidal evaluation, ZEAMX; format: in vivo, Zea mays, L. (Sammel-Bezeichnung); conditions: preemergence
Procedure, shortened: as §2

GLXMAW Soybean, Williams = experiment: Preemergence herbicidal evaluation, GLXMAW; format: in vivo, Glycine max, (L.) Merr. cv Williams; conditions: preemergence
Procedure, shortened: as §2

ABUTH Velvetleaf [3] = experiment: Postemergence herbicidal evaluation, ABUTH; format: in vivo, Abutilon theophrasti, Medic.; conditions: postemergence spray, rated about two-three weeks after treatment
Procedure, shortened: as §1

CASOB Sicklepod = experiment: Postemergence herbicidal evaluation, CASOB; format: in vivo, Cassia obtusifolia, L.; conditions: postemergence spray, rated about two-three weeks after treatment
Procedure, shortened: as §1

[4] = tested on: CHEAL Lambsquarters, Common; experiment: Preemergence herbicidal evaluation, CHEAL; format: in vivo, Chenopodium album, L.; conditions: preemergence
Procedure, shortened: as §2

ORYSAT Rice, Tebonnet = experiment: Preemergence herbicidal evaluation, ORYSAT; format: in vivo, Oryza sativa, (L.); conditions: preemergence
Procedure, shortened: as §2

[5] = tested on: IPOHE Morningglory, Ivyleaf; experiment: Preemergence herbicidal evaluation, IPOHE; format: in vivo, Ipomoea hederacea, (L.) Jacq.; conditions: preemergence
Procedure, shortened: as §2

ABUTH Velvetleaf [6] = experiment: Preemergence herbicidal evaluation, ABUTH; format: in vivo, Abutilon theophrasti, Medic.; conditions: preemergence
Procedure, shortened: as §2

AMBEL Ragweed, Common = experiment: Preemergence herbicidal evaluation, AMBEL; format: in vivo, Ambrosia artemisifolia, L.; conditions: preemergence
Procedure, shortened: as §2

Q: Which “Postemergence herbicidal rating GALAP” value (GALAP Galium; 0.008 kg/ha) does the source give for `CCc1ccc(-n2nnc3cc(F)c(-n4c(=O)cc(C(F)(F)F)n(C)c4=O)cc32)cc1COC` [Example 28] here?
A: 4.0

Q: And the “Postemergence herbicidal rating GALAP” value (GALAP Galium; 0.016 kg/ha)?
A: 4.0

Q: And the “Postemergence herbicidal rating GALAP” value (GALAP Galium; 0.032 kg/ha)?
A: 6.0

Q: What about the “Postemergence herbicidal rating GALAP” value (GALAP Galium; 0.062 kg/ha) of the same compound?
A: 8.0

Q: And the SETVI herbicidal rating (SETVI Foxtail, Green [1]; rate 0.016 kg/ha)?
A: 0.0

Q: What about the SETVI herbicidal rating (SETVI Foxtail, Green [1]; rate 0.032 kg/ha) of the same compound?
A: 2.0

Q: What about the SETVI herbicidal rating (SETVI Foxtail, Green [1]; rate 0.062 kg/ha) of the same compound?
A: 4.0

Q: And the SETVI herbicidal rating (SETVI Foxtail, Green [1]; rate 0.125 kg/ha)?
A: 9.0

Q: What about the “Postemergence herbicidal rating SETVI” value (SETVI Foxtail, Green [2]; 0.008 kg/ha) of the same compound?
A: 0.0

Q: What about the “Postemergence herbicidal rating SETVI” value (SETVI Foxtail, Green [2]; 0.016 kg/ha) of the same compound?
A: 3.0

Q: What about the “Postemergence herbicidal rating SETVI” value (SETVI Foxtail, Green [2]; 0.032 kg/ha) of the same compound?
A: 7.0

Q: And the “Postemergence herbicidal rating SETVI” value (SETVI Foxtail, Green [2]; 0.062 kg/ha)?
A: 9.0

Q: And the ZEAMX herbicidal rating (ZEAMX Corn, Field; rate 0.016 kg/ha)?
A: 0.0

Q: And the ZEAMX herbicidal rating (ZEAMX Corn, Field; rate 0.032 kg/ha)?
A: 3.0

Q: What about the ZEAMX herbicidal rating (ZEAMX Corn, Field; rate 0.062 kg/ha) of the same compound?
A: 4.0

Q: What about the ZEAMX herbicidal rating (ZEAMX Corn, Field; rate 0.125 kg/ha) of the same compound?
A: 5.0

Q: And the GLXMAW herbicidal rating (GLXMAW Soybean, Williams; rate 0.016 kg/ha)?
A: 0.0

Q: What about the GLXMAW herbicidal rating (GLXMAW Soybean, Williams; rate 0.032 kg/ha) of the same compound?
A: 0.0

Q: What about the GLXMAW herbicidal rating (GLXMAW Soybean, Williams; rate 0.062 kg/ha) of the same compound?
A: 0.0

Q: What about the GLXMAW herbicidal rating (GLXMAW Soybean, Williams; rate 0.125 kg/ha) of the same compound?
A: 0.0

Q: What about the “Postemergence herbicidal rating ABUTH” value (ABUTH Velvetleaf [3]; 0.008 kg/ha) of the same compound?
A: 9.0

Q: What about the “Postemergence herbicidal rating ABUTH” value (ABUTH Velvetleaf [3]; 0.016 kg/ha) of the same compound?
A: 9.0

Q: And the “Postemergence herbicidal rating ABUTH” value (ABUTH Velvetleaf [3]; 0.032 kg/ha)?
A: 9.0

Q: What about the “Postemergence herbicidal rating ABUTH” value (ABUTH Velvetleaf [3]; 0.062 kg/ha) of the same compound?
A: 9.0

Q: What about the “Postemergence herbicidal rating CASOB” value (CASOB Sicklepod; 0.008 kg/ha) of the same compound?
A: 0.0

Q: What about the “Postemergence herbicidal rating CASOB” value (CASOB Sicklepod; 0.016 kg/ha) of the same compound?
A: 0.0

Q: And the “Postemergence herbicidal rating CASOB” value (CASOB Sicklepod; 0.032 kg/ha)?
A: 1.0

Q: What about the “Postemergence herbicidal rating CASOB” value (CASOB Sicklepod; 0.062 kg/ha) of the same compound?
A: 3.0

Q: And the CHEAL herbicidal rating ([4]; rate 0.016 kg/ha)?
A: 3.0

Q: And the CHEAL herbicidal rating ([4]; rate 0.032 kg/ha)?
A: 9.0

Q: What about the CHEAL herbicidal rating ([4]; rate 0.062 kg/ha) of the same compound?
A: 9.0

Q: What about the CHEAL herbicidal rating ([4]; rate 0.125 kg/ha) of the same compound?
A: 9.0

Q: What about the ORYSAT herbicidal rating (ORYSAT Rice, Tebonnet; rate 0.016 kg/ha) of the same compound?
A: 0.0

Q: And the ORYSAT herbicidal rating (ORYSAT Rice, Tebonnet; rate 0.032 kg/ha)?
A: 0.0

Q: What about the ORYSAT herbicidal rating (ORYSAT Rice, Tebonnet; rate 0.062 kg/ha) of the same compound?
A: 0.0

Q: And the ORYSAT herbicidal rating (ORYSAT Rice, Tebonnet; rate 0.125 kg/ha)?
A: 0.0

Q: What about the IPOHE herbicidal rating ([5]; rate 0.016 kg/ha) of the same compound?
A: 0.0

Q: What about the IPOHE herbicidal rating ([5]; rate 0.032 kg/ha) of the same compound?
A: 0.0

Q: And the IPOHE herbicidal rating ([5]; rate 0.062 kg/ha)?
A: 1.0

Q: And the IPOHE herbicidal rating ([5]; rate 0.125 kg/ha)?
A: 1.0

Q: And the ABUTH herbicidal rating (ABUTH Velvetleaf [6]; rate 0.032 kg/ha)?
A: 2.0

Q: And the ABUTH herbicidal rating (ABUTH Velvetleaf [6]; rate 0.062 kg/ha)?
A: 9.0

Q: And the ABUTH herbicidal rating (ABUTH Velvetleaf [6]; rate 0.125 kg/ha)?
A: 9.0

Q: What about the AMBEL herbicidal rating (AMBEL Ragweed, Common; rate 0.016 kg/ha) of the same compound?
A: 0.0

Q: What about the AMBEL herbicidal rating (AMBEL Ragweed, Common; rate 0.032 kg/ha) of the same compound?
A: 0.0

Q: And the AMBEL herbicidal rating (AMBEL Ragweed, Common; rate 0.062 kg/ha)?
A: 1.0

Q: What about the AMBEL herbicidal rating (AMBEL Ragweed, Common; rate 0.125 kg/ha) of the same compound?
A: 7.0
